≈ marks a conversion by molar mass, not a printed value.
Tests used:
Staphylococcus aureus [1] = assay: Antibacterial activity against Methicillin-resistant Staphylococcus aureus by CLSI method; format: functional
Enterococcus = assay: Antibacterial activity against Vancomycin-resistant Enterococcus by CLSI method; format: functional
Streptococcus pneumoniae [2] = assay: Antibacterial activity against Streptococcus pneumoniae ATCC 49619 by CLSI method; format: functional
Enterococcus faecalis [3] = assay: Antibacterial activity against vancomycin-resistant Enterococcus faecalis ATCC 51575 by CLSI method; format: functional
Enterococcus faecalis [4] = assay: Antibacterial activity against Enterococcus faecalis ATCC 29212 by CLSI method; format: functional
Streptococcus pneumoniae [5] = assay: Antibacterial activity against genotype penicillin-resistant Streptococcus pneumoniae by CLSI method; format: functional
Enterococcus faecium [6] = assay: Antibacterial activity against vancomycin-resistant Enterococcus faecium ATCC 51559 by CLSI method; format: functional
Streptococcus anginosus = assay: Antibacterial activity against Streptococcus anginosus ATCC 33397 by CLSI method; format: functional
Escherichia coli [7] = assay: Antibacterial activity against Escherichia coli ATCC 25922 by CLSI method; format: functional
Staphylococcus aureus [8] = assay: Antibacterial activity against hospital-acquired Methicillin -resistant Staphylococcus aureus ATCC BAA-811 by CLSI method; format: functional
[9] = molecular target: DNA topoisomerase 2-alpha (Homo sapiens, UniProt P11388); assay: Inhibition of human topoisomerase 2alpha; format: ADME
Chain of DNA topoisomerase 2-alpha (P11388 whole entry): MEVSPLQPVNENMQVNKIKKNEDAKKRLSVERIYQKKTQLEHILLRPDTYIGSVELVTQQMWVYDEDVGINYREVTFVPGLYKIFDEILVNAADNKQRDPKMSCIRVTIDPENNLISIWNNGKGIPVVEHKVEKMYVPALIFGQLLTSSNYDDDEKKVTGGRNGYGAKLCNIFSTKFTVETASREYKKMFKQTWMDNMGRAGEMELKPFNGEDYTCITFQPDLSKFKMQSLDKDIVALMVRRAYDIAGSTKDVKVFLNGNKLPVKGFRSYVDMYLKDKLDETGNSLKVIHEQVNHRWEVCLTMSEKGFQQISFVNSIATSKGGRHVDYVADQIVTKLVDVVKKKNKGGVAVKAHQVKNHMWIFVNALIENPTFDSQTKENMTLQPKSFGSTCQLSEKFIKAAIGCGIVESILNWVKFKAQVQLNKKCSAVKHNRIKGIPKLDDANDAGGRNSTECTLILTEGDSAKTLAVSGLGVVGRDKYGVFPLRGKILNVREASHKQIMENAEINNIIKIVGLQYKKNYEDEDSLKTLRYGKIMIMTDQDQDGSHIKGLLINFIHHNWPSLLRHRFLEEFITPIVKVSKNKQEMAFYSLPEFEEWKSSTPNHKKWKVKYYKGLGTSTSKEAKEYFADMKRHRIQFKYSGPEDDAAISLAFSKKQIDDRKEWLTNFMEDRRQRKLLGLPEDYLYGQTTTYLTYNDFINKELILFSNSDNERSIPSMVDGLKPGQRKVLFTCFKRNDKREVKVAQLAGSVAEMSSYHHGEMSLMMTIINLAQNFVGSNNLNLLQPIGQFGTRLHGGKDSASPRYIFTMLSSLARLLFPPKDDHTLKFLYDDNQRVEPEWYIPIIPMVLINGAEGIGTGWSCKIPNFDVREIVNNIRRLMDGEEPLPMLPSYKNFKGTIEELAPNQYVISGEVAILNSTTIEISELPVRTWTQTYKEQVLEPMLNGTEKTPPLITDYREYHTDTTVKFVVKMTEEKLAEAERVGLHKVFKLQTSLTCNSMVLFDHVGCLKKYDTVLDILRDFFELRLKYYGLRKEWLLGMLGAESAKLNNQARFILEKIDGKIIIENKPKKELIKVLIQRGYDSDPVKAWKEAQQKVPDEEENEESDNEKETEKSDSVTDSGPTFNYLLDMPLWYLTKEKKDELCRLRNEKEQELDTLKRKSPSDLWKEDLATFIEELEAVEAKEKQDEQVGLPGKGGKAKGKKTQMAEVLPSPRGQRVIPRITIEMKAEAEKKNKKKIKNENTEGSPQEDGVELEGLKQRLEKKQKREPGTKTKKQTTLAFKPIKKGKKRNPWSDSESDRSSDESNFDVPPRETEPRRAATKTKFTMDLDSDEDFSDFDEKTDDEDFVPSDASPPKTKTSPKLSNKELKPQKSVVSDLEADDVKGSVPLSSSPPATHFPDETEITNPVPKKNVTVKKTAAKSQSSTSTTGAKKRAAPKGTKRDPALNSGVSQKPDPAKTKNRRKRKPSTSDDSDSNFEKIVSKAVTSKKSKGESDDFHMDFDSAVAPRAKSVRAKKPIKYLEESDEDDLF

[10] = Cytotoxicity against human HepG2 cells assessed as reduction in cell viability at 10 uM incubated for 48 hrs by CCK-8 assay
Fusobacterium nucleatum = assay: Antibacterial activity against Fusobacterium nucleatum JCM8532 by CLSI method; format: functional
Porphyromonas gingivalis = assay: Antibacterial activity against Porphyromonas gingivalis JCM8525 by CLSI method; format: functional
Staphylococcus aureus [11] = assay: Antibacterial activity against Staphylococcus aureus ATCC 29213 by CLSI method; format: functional
Enterococcus faecium [12] = assay: Antibacterial activity against Enterococcus faecium ATCC 35667 by CLSI method; format: functional
Escherichia coli [13] = assay: Antibacterial activity against Escherichia coli ATCC 25922 in presence of PAbetaN by CLSI method; format: functional
Bacteroides fragilis = assay: Antibacterial activity against Bacteroides fragilis ATCC 25285 by CLSI method; format: functional
[14] = Cytotoxicity against human HepG2 cells assessed as reduction in cell viability at 50 uM incubated for 48 hrs by CCK-8 assay
DNA gyrase = DNA gyrase (Escherichia coli, UniProt P0AES4+P0AES6); assay: Inhibition of Escherichia coli DNA gyrase by measuring supercoiling activity incubated for 60 mins by fluorescence based assay; format: protein-complex assay
Staphylococcus aureus [15] = assay: Antibacterial activity against community-acquired Methicillin -resistant Staphylococcus aureus ATCC BAA-1556 by CLSI method; format: functional
[16] = tested on: Peptostreptococcus anaerobius; assay: Antibacterial activity against Peptostreptococcus anaerobius ATCC 27337 by CLSI method; format: functional
Haemophilus influenzae = assay: Antibacterial activity against Haemophilus influenzae ATCC 43095 by CLSI method; format: functional
[17] = molecular target: Voltage-gated inwardly rectifying potassium channel KCNH2 (Homo sapiens, UniProt Q12809); assay: Inhibition of human ERG expressed in CHO cells by Q-patch clamp assay
Chain of Voltage-gated inwardly rectifying potassium channel KCNH2 (Q12809 whole entry): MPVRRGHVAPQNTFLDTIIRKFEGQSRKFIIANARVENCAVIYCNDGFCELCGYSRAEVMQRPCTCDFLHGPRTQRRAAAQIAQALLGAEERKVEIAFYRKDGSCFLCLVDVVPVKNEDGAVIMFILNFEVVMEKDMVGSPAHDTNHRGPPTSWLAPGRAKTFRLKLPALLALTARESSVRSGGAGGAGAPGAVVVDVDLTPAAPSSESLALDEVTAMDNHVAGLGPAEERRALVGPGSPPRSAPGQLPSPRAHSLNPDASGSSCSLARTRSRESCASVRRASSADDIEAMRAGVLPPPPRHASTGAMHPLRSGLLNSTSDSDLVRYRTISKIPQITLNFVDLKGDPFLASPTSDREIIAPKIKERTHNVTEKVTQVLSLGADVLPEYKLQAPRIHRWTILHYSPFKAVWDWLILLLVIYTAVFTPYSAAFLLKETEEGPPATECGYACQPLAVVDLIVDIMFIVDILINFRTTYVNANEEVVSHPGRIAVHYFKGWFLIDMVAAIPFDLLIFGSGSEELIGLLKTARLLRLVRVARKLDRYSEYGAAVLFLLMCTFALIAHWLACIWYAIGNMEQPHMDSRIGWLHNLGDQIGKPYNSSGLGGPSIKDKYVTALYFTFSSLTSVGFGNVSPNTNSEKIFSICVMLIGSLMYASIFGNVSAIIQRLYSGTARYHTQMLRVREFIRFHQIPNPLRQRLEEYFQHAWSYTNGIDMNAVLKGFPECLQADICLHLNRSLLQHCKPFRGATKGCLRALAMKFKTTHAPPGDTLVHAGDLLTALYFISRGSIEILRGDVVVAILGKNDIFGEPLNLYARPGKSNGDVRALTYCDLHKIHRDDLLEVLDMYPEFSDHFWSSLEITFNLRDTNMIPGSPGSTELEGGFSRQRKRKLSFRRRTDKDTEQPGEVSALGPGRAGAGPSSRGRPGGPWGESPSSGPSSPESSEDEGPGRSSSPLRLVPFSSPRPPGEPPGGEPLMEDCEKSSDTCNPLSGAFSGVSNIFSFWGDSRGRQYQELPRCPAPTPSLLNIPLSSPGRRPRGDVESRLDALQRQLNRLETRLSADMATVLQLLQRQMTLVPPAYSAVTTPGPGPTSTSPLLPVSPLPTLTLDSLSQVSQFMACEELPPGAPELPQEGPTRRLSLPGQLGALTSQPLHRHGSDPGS

[18] = tested on: Prevotella melaninogenica; assay: Antibacterial activity against Prevotella melaninogenica JCM6325 by CLSI method; format: functional
Clostridioides difficile = assay: Antibacterial activity against Clostridioides difficile ATCC 700057 by CLSI method; format: functional
[19] = Inhibition of Escherichia coli topoisomerase IV by measuring relaxation activity incubated for 30 mins by fluorescence based assay

Row | SMILES | MIC50 (Staphylococcus aureus [1]) [µg/mL] | MIC90 (Staphylococcus aureus [1]) [µg/mL] | MIC50 (Enterococcus) [µg/mL] | MIC90 (Enterococcus) [µg/mL] | MIC (Streptococcus pneumoniae [2]) [µg/mL] | MIC (Enterococcus faecalis [3]) [µg/mL] | MIC (Enterococcus faecalis [4]) [µg/mL] | MIC50 (Streptococcus pneumoniae [5]) [µg/mL] | MIC90 (Streptococcus pneumoniae [5]) [µg/mL] | MIC (Enterococcus faecium [6]) [µg/mL] | MIC (Streptococcus anginosus) [µg/mL] | MIC (Escherichia coli [7]) [µg/mL] | MIC (Staphylococcus aureus [8]) [µg/mL] | MIC (Staphylococcus aureus [11]) [µg/mL] | MIC (Enterococcus faecium [12]) [µg/mL] | MIC (Escherichia coli [13]) [µg/mL] | IC50 (DNA gyrase) [nM] | MIC (Staphylococcus aureus [15]) [µg/mL] | IC50 [19] [nM] | also measured
1 | CC(=O)NC[C@H]1CN(c2ccc(N3CCOCC3)c(F)c2)C(=O)O1 [LINEZOLID] | 4 (≈ 11.9 µM) | 4 (≈ 11.9 µM) | 4 (≈ 11.9 µM) | 4 (≈ 11.9 µM) |  |  |  |  |  |  |  |  |  |  |  |  |  |  |  | 
2 | CN[C@H](CC(C)C)C(=O)N[C@H]1C(=O)N[C@@H](CC(N)=O)C(=O)N[C@H]2C(=O)N[C@H]3C(=O)N[C@H](C(=O)N[C@H](C(=O)O)c4cc(O)cc(O)c4-c4cc3ccc4O)[C@H](O)c3ccc(c(Cl)c3)Oc3cc2cc(c3O[C@@H]2O[C@H](CO)[C@@H](O)[C@H](O)[C@H]2O[C@H]2C[C@](C)(N)[C@H](O)[C@H](C)O2)Oc2ccc(cc2Cl)[C@H]1O [VANCOMYCIN] | 1 (≈ 0.69 µM) | 2 (≈ 1.38 µM) | > 128 | > 128 | 0.25 (≈ 0.173 µM) | > 128 | 2 (≈ 1.38 µM) | 0.25 (≈ 0.173 µM) | 0.5 (≈ 0.345 µM) | > 128 | 0.5 (≈ 0.345 µM) | > 128 |  |  |  |  |  |  |  | 
3 | CCCCCN(CCCCC)Cc1cc(C(=O)O)ccc1NC(=O)c1cc2cc(F)cc(NC)c2[nH]c1=O |  |  |  |  | 0.015 (≈ 0.0286 µM) | 0.015 (≈ 0.0286 µM) | 0.015 (≈ 0.0286 µM) |  |  |  |  |  | 0.5 (≈ 0.953 µM) | 0.06 (≈ 0.114 µM) | 0.06 (≈ 0.114 µM) | ≤ 0.03 | 0.8 | 0.5 (≈ 0.953 µM) |  | IC50 [9]: > 100000 nM; cytotoxicity at 48 h, 10 µM ([10]; hepg2): 8.11%; MIC (Fusobacterium nucleatum): 1 µg/mL (≈ 1.91 µM); MIC (Porphyromonas gingivalis): 0.12 µg/mL (≈ 0.229 µM); MIC (Bacteroides fragilis): > 32 µg/mL; cytotoxicity at 48 h, 50 µM ([14]; hepg2): 46.7%; MIC [16]: 0.12 µg/mL (≈ 0.229 µM); MIC (Haemophilus influenzae): 0.25 µg/mL (≈ 0.477 µM)
4 | CNc1cc(F)cc2cc(C(=O)Nc3ccc(C(=O)O)cc3CN(CCO)C3CCCCC3)c(=O)[nH]c12.Cl |  |  |  |  | 0.015 | 0.008 | 0.008 |  |  | 0.015 | 0.008 | 4 | 1 | 0.5 | 0.015 | ≤ 0.03 | 0.29 | 1 | 23.4 | IC50 [9]: > 100000 nM; IC50 [17]: > 30000 nM; cytotoxicity at 48 h, 10 µM ([10]; HepG2 cells): -2.04%; MIC (Fusobacterium nucleatum): 0.12 µg/mL; MIC [18]: > 32 µg/mL; MIC (Clostridioides difficile): 1 µg/mL; MIC (Porphyromonas gingivalis): 0.12 µg/mL; MIC (Bacteroides fragilis): > 32 µg/mL; cytotoxicity at 48 h, 50 µM ([14]; HepG2 cells): 7.76%; MIC [16]: 0.12 µg/mL; MIC (Haemophilus influenzae): 0.06 µg/mL
5 | C[C@H]1COc2c(N3CCN(C)CC3)c(F)cc3c(=O)c(C(=O)O)cn1c23.C[C@H]1COc2c(N3CCN(C)CC3)c(F)cc3c(=O)c(C(=O)O)cn1c23.O [LEVOFLOXACIN] | 16 | > 128 | 8 | 128 |  |  |  | 2 | 2 |  |  |  |  |  |  |  |  |  |  | 
6 | CNc1cc(F)cc2cc(C(=O)Nc3ccc(C(=O)O)cc3CN(CC(=O)O)C3CCCCC3)c(=O)[nH]c12 |  |  |  |  |  |  |  |  |  |  |  | > 64 |  | 32 (≈ 61 µM) |  | 0.12 | 0.57 |  | 76.3 | 
7 | CNc1cc(F)cc2cc(C(=O)Nc3ccc(C(=O)O)cc3CN(C)C3CC3)c(=O)[nH]c12 |  |  |  |  |  |  |  |  |  |  |  | > 8 |  | > 8 |  | ≤ 0.03 | 0.6 |  | 771 | 
8 | CN(C)c1cc(NC(=O)CNC(C)(C)C)c(O)c2c1C[C@H]1C[C@H]3[C@H](N(C)C)C(O)=C(C(N)=O)C(=O)[C@@]3(O)C(O)=C1C2=O [TIGECYCLINE] | 0.25 (≈ 0.427 µM) | 2 (≈ 3.41 µM) | 0.25 (≈ 0.427 µM) | 0.5 (≈ 0.854 µM) | 0.06 (≈ 0.102 µM) | 0.25 (≈ 0.427 µM) | 0.12 (≈ 0.205 µM) |  |  | 0.12 (≈ 0.205 µM) | 0.06 (≈ 0.102 µM) | 0.25 (≈ 0.427 µM) | 0.25 (≈ 0.427 µM) | 0.25 (≈ 0.427 µM) | 0.06 (≈ 0.102 µM) |  |  | 0.5 (≈ 0.854 µM) |  | MIC (Staphylococcus aureus [1]): 0.25 µg/mL (≈ 0.427 µM)
9 | CO/N=C(\C(=O)N[C@@H]1C(=O)N2C(C(=O)O)=C(CSc3nc(=O)c(O)nn3C)CS[C@H]12)c1csc(N)n1 [CEFTRIAXONE] |  |  |  |  |  |  |  | 1 (≈ 1.8 µM) | 4 (≈ 7.21 µM) |  |  |  |  |  |  |  |  |  |  | MIC (Fusobacterium nucleatum): 0.5 µg/mL (≈ 0.902 µM); MIC [18]: 1 µg/mL (≈ 1.8 µM); MIC (Porphyromonas gingivalis): ≤ 0.12 µg/mL; MIC (Bacteroides fragilis): 64 µg/mL (≈ 115 µM); MIC [16]: 0.5 µg/mL (≈ 0.902 µM)
10 | CC1(C)S[C@@H]2[C@H](NC(=O)Cc3ccccc3)C(=O)N2[C@H]1C(=O)O [PENICILLIN G] |  |  |  |  |  |  |  | 2 (≈ 5.98 µM) | 4 (≈ 12 µM) |  |  |  |  |  |  |  |  |  |  | 
11 | CNc1cc(F)cc2cc(C(=O)Nc3ccc(C(=O)O)cc3CN3CCCCC3)c(=O)[nH]c12 |  |  |  |  | 0.03 (≈ 0.0663 µM) | 0.015 (≈ 0.0332 µM) | 0.015 (≈ 0.0332 µM) |  |  | 0.015 (≈ 0.0332 µM) | 0.03 (≈ 0.0663 µM) | 8 (≈ 17.7 µM) | 4 (≈ 8.84 µM) | 4 (≈ 8.84 µM) | 0.03 (≈ 0.0663 µM) | ≤ 0.03 | 0.31 | 4 (≈ 8.84 µM) | 15.3 | MIC (Haemophilus influenzae): 0.06 µg/mL (≈ 0.133 µM)

Reference: ChEMBL document CHEMBL4699558, “Lead optimization of 8-(methylamino)-2-oxo-1,2-dihydroquinolines as bacterial type II topoisomerase inhibitors” (Bioorg Med Chem, 2020)
